Values quoted from earlier work as cited in US8198264B2, “Method for treating head and neck cancer” (National Cancer Center, priority 2006, dated 2012).

Legend:
[1] = system: squamous cell head and neck cancer; conditions: regimen combined with radiotherapy, meta-analysis
[2] = system: advanced/relapsed head and neck cancer; conditions: 5-FU drug alone, continuous intravenous infusion

Row | Compound | odds ratio (add-on effect on survival) [1] | response rate [2]
1 | O=c1[nH]cc(F)c(=O)[nH]1 [5-FU, 5-fluorouracil] | 0.66 | 15%
2 | CO[C@@]12[C@H](COC(N)=O)C3=C(C(=O)C(C)=C(N)C3=O)N1C[C@@H]1N[C@@H]12 [Mitomycin C] | 0.54 | –
3 | Bleomycin | 0.80 | –
